According to US20210198277A1, “AMINE-SUBSTITUTED ARYL OR HETEROARYL COMPOUNDS” (Epizyme, Inc., priority 2016, published 2021):

Target: T1, EHMT2 (Homo sapiens, UniProt Q96KQ7)
T1 construct: host or cells: MDA-MB-231
T1 sequence (Q96KQ7 1-1210): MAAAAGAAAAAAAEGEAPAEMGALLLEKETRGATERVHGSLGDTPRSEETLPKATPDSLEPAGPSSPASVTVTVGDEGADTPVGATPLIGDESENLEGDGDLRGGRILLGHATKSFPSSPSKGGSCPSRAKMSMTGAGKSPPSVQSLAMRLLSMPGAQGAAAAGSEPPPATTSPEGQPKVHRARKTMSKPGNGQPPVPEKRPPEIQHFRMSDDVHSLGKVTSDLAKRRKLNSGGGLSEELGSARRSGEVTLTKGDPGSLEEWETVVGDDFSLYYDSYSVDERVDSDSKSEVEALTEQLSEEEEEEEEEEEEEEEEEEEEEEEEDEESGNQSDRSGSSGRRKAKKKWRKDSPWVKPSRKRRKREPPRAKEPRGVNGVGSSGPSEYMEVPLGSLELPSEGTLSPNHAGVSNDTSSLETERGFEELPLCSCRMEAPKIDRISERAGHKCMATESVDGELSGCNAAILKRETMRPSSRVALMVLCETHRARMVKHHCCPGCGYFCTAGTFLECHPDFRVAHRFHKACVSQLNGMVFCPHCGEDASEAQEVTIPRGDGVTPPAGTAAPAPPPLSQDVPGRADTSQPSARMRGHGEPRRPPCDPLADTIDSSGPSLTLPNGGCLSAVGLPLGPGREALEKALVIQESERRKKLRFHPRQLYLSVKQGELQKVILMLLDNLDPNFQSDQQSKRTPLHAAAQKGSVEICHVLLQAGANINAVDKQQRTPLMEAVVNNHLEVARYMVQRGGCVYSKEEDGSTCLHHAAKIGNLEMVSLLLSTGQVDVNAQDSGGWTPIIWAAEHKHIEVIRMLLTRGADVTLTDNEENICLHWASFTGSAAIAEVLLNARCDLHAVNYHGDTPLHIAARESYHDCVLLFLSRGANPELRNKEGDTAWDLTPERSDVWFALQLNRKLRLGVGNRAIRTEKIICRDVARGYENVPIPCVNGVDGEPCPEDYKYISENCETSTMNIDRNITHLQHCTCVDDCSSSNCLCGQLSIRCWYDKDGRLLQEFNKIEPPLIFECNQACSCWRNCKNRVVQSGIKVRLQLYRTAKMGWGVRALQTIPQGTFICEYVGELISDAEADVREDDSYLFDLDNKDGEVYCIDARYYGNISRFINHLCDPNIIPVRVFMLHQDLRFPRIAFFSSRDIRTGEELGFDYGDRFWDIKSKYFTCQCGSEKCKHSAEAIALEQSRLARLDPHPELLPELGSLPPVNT
Assay: MDA-MB-231 H3K9me2 in-cell Western assay (EHMT2 ICW)
Type: cell-based
Conditions: H3K9me2 in-cell Western, MDA-MB-231 cells; read-out: EHMT2 ICW (IC50 μM)
Outline: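 IC50 values came from a variable-slope four-parameter fit on triplicate wells, using % inhibition from the 800/700 nm infrared signal ratio (anti-H3K9me2 versus DRAQ5 DNA stain). Before fixation and immunostaining, MDA-MB-231 cells, 3,000 per well, were exposed to compound for 48 h at 37 °C.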

CNc1nc(C2CCCC2)c2cc(OC)c(OCCCN3CCCC3)cc2n1 [Compound 518, 4-cyclopentyl-6-methoxy-N-methyl-7-(3-(pyrrolidin-1-yl)propoxy)quinazolin-2-amine] and CNc1nc(C2CCCCC2)c2cc(OC)c(OCCCN3CCCC3)cc2n1 [Compound 523, 4-cyclohexyl-6-methoxy-N-methyl-7-(3-(pyrrolidin-1-yl)propoxy)quinazolin-2-amine] fall in the same range of IC50: 1 to 10 µM for the first, 1 to 10 µM for the second.

Compared with CNc1nc(C2CCN(C(C)=O)CC2)c2cc(OC)c(OCCCN3CCCC3)cc2n1 [Compound 519], CNc1nc(C2CCN(C(C)C)CC2)c2cc(OC)c(OCCCN3CCCC3)cc2n1 [Compound 530] is lower in IC50: greater than 10 µM for the first, 1 to 10 µM for the second.

CNc1nc(C2CCNCC2)c2cc(OC)c(OCCCN3CCCC3)cc2n1 [Compound 520] and CNc1nc(C2CCOCC2)c2cc(OC)c(OCCCN3CCCC3)cc2n1 [Compound 521] fall in the same range of IC50: 1 to 10 µM for the first, 1 to 10 µM for the second.

Compared with CNc1nc(C2=CCOCC2)c2cc(OC)c(OCCCN3CCCC3)cc2n1 [Compound 522], CNc1cc(C2CCOCC2)c2cc(OC)c(OCCCN3CCCC3)cc2n1 [Compound 524, 6-methoxy-N-methyl-4-(oxan-4-yl)-7-[3-(pyrrolidin-1-yl)propoxy]quinolin-2-amine] is lower in IC50: 1 to 10 µM for the first, less than 0.1 µM for the second.

CNc1nc(C2CCN(C(C)C)CC2)c2cc(OC)c(OC[C@@H]3CCN(C4CC4)C3)cc2n1 [Compound 526] and CNc1nc(C2CCN(C)CC2)c2cc(OC)c(OCCCN3CC4CC4C3)cc2n1 (stereo not shown) [Compound 532] fall in the same range of IC50: 0.1 to 1 µM for the first, 0.1 to 1 µM for the second.

First: COc1cc2c(C3CCN(C)CC3)nc(N3CCCC3)nc2cc1OCCCN1CCCC1 [Compound 527]
Second: COc1cc2c(C3CCN(C)CC3)nc(N3CCC(F)(F)CC3)nc2cc1OCCCN1CCCC1 [Compound 528]
The IC50 of the first is lower: 0.1 to 1 µM for the first, 1 to 10 µM for the second.

COc1cc2c(C3CCN(C)CC3)nc(NC3CCCC3)nc2cc1OCCCN1CCCC1 [Compound 529] and CNc1nc(C2CCN(CCO)CC2)c2cc(OC)c(OCCCN3CCCC3)cc2n1 [Compound 533] fall in the same range of IC50: 0.1 to 1 µM for the first, 0.1 to 1 µM for the second.

Compared with CNc1nc(C2CC(C)(C)NC(C)(C)C2)c2cc(OC)c(OCCCN3CCCC3)cc2n1 [Compound 534], CNc1cc(C2CCN(C)CC2)c2cc(OC)c(OCCCN3CCCC3)cc2n1 [Compound 535] is lower in IC50: greater than 10 µM for the first, less than 0.1 µM for the second.

First: COc1cc2c(C3CCN(C)CC3)cc(C)nc2cc1OCCCN1CCCC1 [Compound 536]
Second: CCCCNc1nccc(NC)n1 [Compound 543, N^2-butyl-N^4-methylpyrimidine-2,4-diamine]
The IC50 of the first is lower: 0.1 to 1 µM for the first, greater than 10 µM for the second. The first is the more potent here.

Same assay, conditions: Table VII; read-out: EHMT2 ICW IC50

CNc1cc(C)nc(Nc2ccc(OC)c(OC[C@@H](O)CN3CCCC3)c2)n1 [Compound 1044] and CNc1cc(C)nc(Nc2ccc(OC)c(OC[C@H](O)CN3CCCC3)c2)n1 [Compound 1045] fall in the same range of IC50: 0.1 to 1 µM for the first, 0.1 to 1 µM for the second.

CNc1ccnc(Nc2ccc(OC)c(OC[C@@H](O)CN3CCC3)c2)n1 [Compound 1046] and CNc1cc(C)nc(Nc2ccc(OC)c(OC[C@H](O)CN(C)C)c2)n1 [Compound 1112] fall in the same range of IC50: 1 to 10 µM for the first, 1 to 10 µM for the second.

CNc1cc(C2CCOCC2)c2cc(OC)c(OC[C@H](O)CN3CCC3)cc2n1 [Compound 1108] and CNc1cc(C2CCOCC2)c2cc(OC)c(CNCCN3CCCC3)cc2n1 [Compound 1111] fall in the same range of IC50: 0.1 to 1 µM for the first, 0.1 to 1 µM for the second.

First: CNc1cc(C)nc(Nc2ccc(OC)c(CNCCNC3CCC3)c2)n1 [Compound 1109]
Second: CNc1cc(C)nc(Nc2cnc(OC)c(CNCCN3CCC3)c2)n1 [Compound 1110]
The IC50 of the first is higher: 1 to 10 µM for the first, 0.1 to 1 µM for the second.

First: CCN(C)C[C@@H](O)COc1cc(Nc2nc(C)cc(NC)n2)ccc1OC [Compound 1113]
Second: CNc1cc(C)nc(Nc2ccc(C)c(C(=O)NCc3ccon3)c2)n1 [Compound 1114]
The IC50 of the first is lower: 1 to 10 µM for the first, greater than 10 µM for the second.
